Assay results as given in article PMC12420206, “The hypusine pathway in Ixodes ricinus: molecular cloning and validation of deoxyhypusine synthase as a novel target for drug discovery to treat and prevent vector borne diseases” (Frontiers in Cellular and Infection Microbiology, 2025).

Target: T1, DHS (deoxyhypusine synthase) from Ixodes ricinus (Ixodes ricinus, UniProt A0A0K8RJK0)
T1 construct: cDNA from salivary gland RNA; pET-28a(+) N-terminal His tag/thrombin/T7 tag, removal not mentioned; E. coli BL21(DE3), Ni-NTA native purification
T1 sequence (A0A0K8RJK0 1-365): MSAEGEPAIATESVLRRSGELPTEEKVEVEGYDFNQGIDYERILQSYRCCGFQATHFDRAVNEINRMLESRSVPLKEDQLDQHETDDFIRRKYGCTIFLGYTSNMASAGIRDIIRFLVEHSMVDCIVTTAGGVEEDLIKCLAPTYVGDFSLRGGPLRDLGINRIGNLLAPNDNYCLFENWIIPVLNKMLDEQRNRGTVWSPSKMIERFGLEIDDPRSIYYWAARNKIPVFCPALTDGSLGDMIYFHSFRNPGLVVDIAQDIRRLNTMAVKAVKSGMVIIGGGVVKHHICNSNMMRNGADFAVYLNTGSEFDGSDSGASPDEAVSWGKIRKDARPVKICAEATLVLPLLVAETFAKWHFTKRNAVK
Experiment: DHS activity assay, GC/MS detection of deoxyhypusine
Format: biochemical
Conditions: 2.1 mM spermidine, co-substrate human eIF5A precursor 40 μg, 3 mM NAD, glycine NaOH buffer, 37 °C, 1 h; specific activity only

**Q.** With `NCCCCNCCCN` [spermidine] as the compound, how does the “DHS activity assay, GC/MS detection of deoxyhypusine” value read?
**A.** No DHS activity was detected in control experiments without either the precursor protein
